Among the data in PubChem BioAssay AID1845194 (Molecular Pharmacology Branch, DTP, NCI, 2023) are viability, T/C and IC50 values, retold here.

pIC50: −log10 of the molar value. Several values for one entry are separate records, joined by “and”; a condition that tells them apart may be missing. Equal entries are not always repeated.

This experiment concerns 287954-098-R-J1 tumor spheroid viability. The experiment can be described thus: Anticancer human tumor 287954-098-R-J1 patient-derived Ewing sarcoma cell line growth inhibition. To be noted: spheroids with HUVEC and MSC; for viability, T/C: stronger effect = lower value. A digest of the protocol: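 Complex tumor spheroids combined malignant cells with endothelial cells and mesenchymal stem cells. DNA-damaging drugs and DNA repair inhibitors were tested alone and in combination, at half-log dilutions down from clinical Cmax (top 10 microM if Cmax unknown), 0.25% DMSO final.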
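Also: spheroids exposed to compound for 7 days before viability readout.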
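For viability, T/C in this document: luminescent signal taken as surrogate of viable cell content; 100% = DMSO vehicle control viability and lower means growth inhibition.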

Take `CC1COCCN1c1cc(-c2ccnn2C)c2ccnc(-c3ccn[nH]3)c2n1` (centres undefined): the viability, T/C (usually the result in the treated group divided by that in the control group, in per cent) was 107% and 114% and 106% (compound 0.0316 µM); 78.3% and 89.9% and 97.7% (compound 0.1 µM); 22.6% and 21.9% and 32.2% (compound 0.316 µM); 6.79% and 3.9% and 8.44% (compound 1 µM); 1.99% and 1.74% and 1.91% (compound 3.16 µM); 3.29% and 2.26% and 3.3% (compound 10 µM). The pIC50 (in general, −log10 of the IC50, conventionally taken in molar units) (curve of compound) was 6.74 and 6.71 and 6.63.
As for `CC1COCCN1c1cc(-c2ccnn2C)c2ccnc(-c3ccn[nH]3)c2n1` (centres undefined) + CC[C@@]1(O)C(=O)OCc2c1cc1n(c2=O)Cc2cc3c(CN(C)C)c(O)ccc3nc2-1, the negative logarithm of the IC50 (pIC50) is 7.34 (curve of first compound, second compound 0.003 µM); more than 7.50 (curve of first compound, second compound 0.00949 µM); more than 7.50 (curve of first compound, second compound 0.03 µM); more than 7.50 (curve of first compound, second compound 0.0949 µM); more than 7.50 (curve of first compound, second compound 0.3 µM). The viability, T/C (second compound 0.003 µM, first compound 0.0316 µM) is 66.4%; the viability, T/C (second compound 0.003 µM, first compound 0.1 µM) is 14.3%; the viability, T/C (second compound 0.003 µM, first compound 0.316 µM) is 7.1%; the viability, T/C (second compound 0.003 µM, first compound 1 µM) is 2.65%; the viability, T/C (second compound 0.003 µM, first compound 3.16 µM) was 1.92%; the viability, T/C (second compound 0.003 µM, first compound 10 µM) was 2.07%. The viability, T/C is, setting by setting: (second compound 0.00949 µM, first compound 0.0316 µM) 3.62%; (second compound 0.00949 µM, first compound 0.1 µM) 1.68%; (second compound 0.00949 µM, first compound 0.316 µM) 2.2%; (second compound 0.00949 µM, first compound 1 µM) 1.74%; (second compound 0.00949 µM, first compound 3.16 µM) 1.4%; (second compound 0.00949 µM, first compound 10 µM) 2%. Besides, the viability, T/C reads like this: (second compound 0.03 µM, first compound 0.0316 µM) 1.73%; (second compound 0.03 µM, first compound 0.1 µM) 1.36%; (second compound 0.03 µM, first compound 0.316 µM) 1.38%; (second compound 0.03 µM, first compound 1 µM) 0.71%; (second compound 0.03 µM, first compound 3.16 µM) 1.17%; (second compound 0.03 µM, first compound 10 µM) 1.55%. The viability, T/C is 1.53% (second compound 0.0949 µM, first compound 0.0316 µM); 1.31% (second compound 0.0949 µM, first compound 0.1 µM); 1.28% (second compound 0.0949 µM, first compound 0.316 µM); 0.9% (second compound 0.0949 µM, first compound 1 µM); 0.77% (second compound 0.0949 µM, first compound 3.16 µM); 1.08% (second compound 0.0949 µM, first compound 10 µM). Also, the viability, T/C reads like this: (second compound 0.3 µM, first compound 0.0316 µM) 1.62%; (second compound 0.3 µM, first compound 0.1 µM) 1.43%; (second compound 0.3 µM, first compound 0.316 µM) 1.23%; (second compound 0.3 µM, first compound 1 µM) 0.85%; (second compound 0.3 µM, first compound 3.16 µM) 0.69%; (second compound 0.3 µM, first compound 10 µM) 0.67%.
With `Cc1sc2c(c1C)C(c1ccc(Cl)cc1)=NC(CC(=O)Nc1ccc(O)cc1)c1nnc(C)n1-2` (centres undefined) + Cn1nnc2c(C(N)=O)ncn2c1=O, the negative-log IC50 (pIC50) runs as follows: (curve of first compound, second compound 1 µM) 6.02; (curve of first compound, second compound 3.16 µM) 6.20; (curve of first compound, second compound 10 µM) 5.95; (curve of first compound, second compound 31.6 µM) 6.20; (curve of first compound, second compound 100 µM) 6.74. The viability, T/C (second compound 1 µM, first compound 0.00949 µM) was 112%; the viability, T/C (second compound 1 µM, first compound 0.03 µM) was 117%; the viability, T/C (second compound 1 µM, first compound 0.0949 µM) is 111%; the viability, T/C (second compound 1 µM, first compound 0.3 µM) is 101%; the viability, T/C (second compound 1 µM, first compound 0.949 µM) was 50.2%; the viability, T/C (second compound 1 µM, first compound 3 µM) is 4.34%. In addition, the viability, T/C reads like this: (second compound 3.16 µM, first compound 0.00949 µM) 110%; (second compound 3.16 µM, first compound 0.03 µM) 113%; (second compound 3.16 µM, first compound 0.0949 µM) 123%; (second compound 3.16 µM, first compound 0.3 µM) 91.9%; (second compound 3.16 µM, first compound 0.949 µM) 25.9%; (second compound 3.16 µM, first compound 3 µM) 2.69%. Besides, the viability, T/C was 113% (second compound 10 µM, first compound 0.00949 µM); 122% (second compound 10 µM, first compound 0.03 µM); 122% (second compound 10 µM, first compound 0.0949 µM); 100% (second compound 10 µM, first compound 0.3 µM); 58.3% (second compound 10 µM, first compound 0.949 µM); 2.44% (second compound 10 µM, first compound 3 µM). The viability, T/C was 114% (second compound 31.6 µM, first compound 0.00949 µM); 130% (second compound 31.6 µM, first compound 0.03 µM); 121% (second compound 31.6 µM, first compound 0.0949 µM); 113% (second compound 31.6 µM, first compound 0.3 µM); 13.7% (second compound 31.6 µM, first compound 0.949 µM); 1.92% (second compound 31.6 µM, first compound 3 µM). In addition, the viability, T/C was 105% (second compound 100 µM, first compound 0.00949 µM); 115% (second compound 100 µM, first compound 0.03 µM); 98.2% (second compound 100 µM, first compound 0.0949 µM); 12.2% (second compound 100 µM, first compound 0.3 µM); 2.46% (second compound 100 µM, first compound 0.949 µM); 2.14% (second compound 100 µM, first compound 3 µM).
As to `Cc1sc2c(c1C)C(c1ccc(Cl)cc1)=NC(CC(=O)Nc1ccc(O)cc1)c1nnc(C)n1-2` (centres undefined), the viability, T/C runs as follows: (compound 0.00949 µM) 113% and 114% and 104%; (compound 0.03 µM) 113% and 116% and 107%; (compound 0.0949 µM) 116% and 126% and 112%; (compound 0.3 µM) 86.4% and 108% and 84.2%; (compound 0.949 µM) 41% and 29% and 17.1%; (compound 3 µM) 4.42% and 2.62% and 6.59%. Further, the pIC50 (curve of compound) was 6.13 and 6.16 and 6.27.
